Experiment [1] addresses T1, human recombinant serotonin (5-Hydroxytryptamine) 5-HT2A receptor (Homo sapiens, UniProt P28223).
T1 construct: expressed in transfected cells; host or cells: CHO-K1
Briefly: Serotonin 5-HT2A radioligand binding ([3H]Ketanserin). The conditions noted are these: 0.1 μM compound; read-out: Percentage inhibition of ligand binding, Serotonin 5-HT2A. Here is the method: To evaluate in radioligand binding assays the activity of compounds of the invention, human recombinant serotonin (5-Hydroxytryptamine) 5-HT2A receptor expressed in Chinese hamster ovary (CHO) K1 cells (Bonhaus, D. et al, Br. J. Pharmacol. 115:622, 1995; Saucier, C. et al, J. Neurochem. 68:1998, 1997) in a 50 mM Tris-HCl buffer, pH 7.4, was used. Compounds of the invention were incubated with 0.5 nM [^3H]Ketanserin for 60 min at 25° C. Non-specific binding was estimated in the presence of 1 μM Mianserin. Receptor proteins were filtered and washed, the filters were then counted to determine [^3H]Ketanserin specifically bound. Compounds were screened at 1 μM or lower, using 1% DMSO as vehicle. Biochemical assay results are presented as the percent inhibition of specific binding in Table 5.

The target of experiment [2] is T2, human recombinant serotonin (5-Hydroxytryptamine) 5-HT5A receptor (Homo sapiens, UniProt P47898).
T2 construct: expressed in transfected cells; host or cells: CHO-K1
Briefly: Serotonin 5-HT5A radioligand binding ([3H]LSD). The conditions noted are these: 0.1 μM compound; read-out: Percentage inhibition of ligand binding, Serotonin 5-HT5A. The procedure:
To evaluate in radioligand binding assays the activity of compounds of the invention, human recombinant serotonin (5-Hydroxytryptamine) 5-HT5A receptor expressed in Chinese hamster ovary (CHO) K1 cells (Rees, S. et al, FEBS Lett. 355:242, 1994) in a modified Tris-HCl buffer (50 mM Tris-HCl, pH 7.4, 10 mM MgCl2, 0.5 mM EDTA) was used. Compounds of the invention were incubated with 1.7 nM [^3H]Lysergic acid diethylamide (LSD) for 60 min at 37° C. Non-specific binding was estimated in the presence of 100 μM Serotonin (5-HT). Receptor proteins were filtered and washed, the filters were counted to determine [^3H]LSD specifically bound. Compounds were screened at 1 μM or lower, using 1% DMSO as vehicle. Biochemical assay results are presented as the percent inhibition of specific binding in Table 5.

In experiment [3] the target is T3, human recombinant adrenergic α2C receptor (Homo sapiens, UniProt P18825).
T3 construct: expressed in transfected cells; host or cells: insect Sf9 cells
T3 sequence (P18825 1-462): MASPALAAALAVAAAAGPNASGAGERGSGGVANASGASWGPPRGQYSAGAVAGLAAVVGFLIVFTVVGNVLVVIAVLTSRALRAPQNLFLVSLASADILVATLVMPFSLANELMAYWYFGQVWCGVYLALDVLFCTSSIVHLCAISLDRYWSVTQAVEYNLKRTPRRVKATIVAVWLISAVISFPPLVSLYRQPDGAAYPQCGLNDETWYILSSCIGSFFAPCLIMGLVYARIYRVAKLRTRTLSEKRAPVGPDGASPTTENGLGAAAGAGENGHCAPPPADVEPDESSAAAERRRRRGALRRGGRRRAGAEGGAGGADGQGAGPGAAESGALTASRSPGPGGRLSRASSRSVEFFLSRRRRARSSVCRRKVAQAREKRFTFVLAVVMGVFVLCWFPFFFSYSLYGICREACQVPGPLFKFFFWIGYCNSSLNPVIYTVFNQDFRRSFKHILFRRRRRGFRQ
The experiment can be described thus: Adrenergic α2C radioligand binding ([3H]MK-912). The conditions noted are these: 0.1 μM compound; read-out: Percentage inhibition of ligand binding, Adrenergic α2C. Here is the method:
To evaluate in radioligand binding assays the activity of compounds of the invention, human recombinant adrenergic α2C receptor expressed in insect Sf9 cells (Uhlen, S. et al, J. Pharmacol. Exp. Ther. 271:1558, 1994) in a modified Tris-HCl buffer (50 mM Tris-HCl, pH 7.4, 12.5 mM MgCl2, 2 mM EDTA) was used. Compounds of the invention were incubated with 1 nM [^3H]MK-912 for 60 min at 25° C. Non-specific binding was estimated in the presence of 10 μM WB-4101. Receptor proteins were filtered and washed, the filters were then counted to determine [^3H]MK-912 specifically bound. Compounds were screened at 1 μM or lower, using 1% DMSO as vehicle. Biochemical assay results are presented as the percent inhibition of specific binding in Table 3.

Experiment [4] addresses T4, rat adrenergic α1A receptor (Rattus norvegicus, UniProt P43140).
T4 construct: rat adrenergic α1A receptor obtained from Wistar Rat submaxillary glands; from tissue; host or cells: Wistar rat submaxillary glands
T4 sequence (P43140 1-466): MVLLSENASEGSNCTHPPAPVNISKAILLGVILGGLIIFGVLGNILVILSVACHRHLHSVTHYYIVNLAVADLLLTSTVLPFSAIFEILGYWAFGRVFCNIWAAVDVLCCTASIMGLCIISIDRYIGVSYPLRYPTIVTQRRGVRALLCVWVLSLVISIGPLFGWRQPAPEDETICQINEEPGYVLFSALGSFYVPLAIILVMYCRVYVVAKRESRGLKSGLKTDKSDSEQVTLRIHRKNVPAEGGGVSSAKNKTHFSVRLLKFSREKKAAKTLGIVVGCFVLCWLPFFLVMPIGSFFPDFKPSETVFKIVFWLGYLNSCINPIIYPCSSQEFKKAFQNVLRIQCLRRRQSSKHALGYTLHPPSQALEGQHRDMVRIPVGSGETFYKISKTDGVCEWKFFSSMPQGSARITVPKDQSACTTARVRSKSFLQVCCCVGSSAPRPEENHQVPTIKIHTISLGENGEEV
Briefly: Adrenergic α1A radioligand binding ([3H]Prazosin). Particulars: 0.1 μM compound; read-out: Percentage inhibition of ligand binding, Adrenergic α1A. Here is the method:
To evaluate in radioligand binding assays the activity of compounds of the invention, rat adrenergic α1A receptor obtained from Wistar Rat submaxillary glands (Michel, A. et al, Br. J. Pharmacol. 98:883, 1989) in a modified Tris-HCl buffer (50 mM Tris-HCl buffer, pH 7.4, 0.5 mM EDTA) was used. Compounds of the invention were incubated with 0.25 nM [^3H]Prazosin for 60 min at 25° C. Non-specific binding was estimated in the presence of 10 μM phentolamine. Receptor proteins were filtered and washed, the filters were then counted to determine [^3H]Prazosin specifically bound. Compounds of the invention were screened at 1 μM or lower, using 1% DMSO as vehicle. Biochemical assay results are presented as the percent inhibition of specific binding in Table 3.

From patent US9035056B2, “Pyrido[4,3-b]indole and pyrido[3,4-b]indole derivatives and methods of use” (Medivation Technologies, Inc., priority 2011, dated 2015) come the findings set out here.

What is called inhibition is the change of the read-out against control, counted positive when it falls.

T1 sequence (P28223 whole entry): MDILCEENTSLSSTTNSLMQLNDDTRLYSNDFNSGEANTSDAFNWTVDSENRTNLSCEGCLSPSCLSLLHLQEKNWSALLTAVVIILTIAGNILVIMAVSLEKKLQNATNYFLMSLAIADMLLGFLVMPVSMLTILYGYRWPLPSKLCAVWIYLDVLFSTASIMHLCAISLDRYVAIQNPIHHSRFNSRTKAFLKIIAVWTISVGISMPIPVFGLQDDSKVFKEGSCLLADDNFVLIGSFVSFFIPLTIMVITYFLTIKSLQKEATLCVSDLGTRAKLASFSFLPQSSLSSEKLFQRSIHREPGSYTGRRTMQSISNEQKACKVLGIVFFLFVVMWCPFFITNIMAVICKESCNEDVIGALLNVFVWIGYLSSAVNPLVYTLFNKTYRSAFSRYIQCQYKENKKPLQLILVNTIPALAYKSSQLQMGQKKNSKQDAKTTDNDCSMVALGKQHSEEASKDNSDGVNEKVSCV
T2 sequence (P47898 whole entry): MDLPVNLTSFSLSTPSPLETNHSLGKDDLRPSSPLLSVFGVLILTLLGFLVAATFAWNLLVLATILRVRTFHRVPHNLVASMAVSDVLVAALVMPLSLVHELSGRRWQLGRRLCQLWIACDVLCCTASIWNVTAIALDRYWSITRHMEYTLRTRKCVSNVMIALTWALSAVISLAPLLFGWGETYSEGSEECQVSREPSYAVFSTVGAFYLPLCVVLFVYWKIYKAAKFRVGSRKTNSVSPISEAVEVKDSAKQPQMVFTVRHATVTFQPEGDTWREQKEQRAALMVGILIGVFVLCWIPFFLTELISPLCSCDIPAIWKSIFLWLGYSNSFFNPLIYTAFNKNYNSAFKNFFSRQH

With `Cc1ccc2c(c1)c1c(n2/C=C2/CCCc3ccccc32)CCN(C)C1` [i-2], the inhibition at 0.1 µM in experiment [1] was found to be 99%; in experiment [2], 101%; in experiment [3], 90%; in experiment [4], 51%.

With `Cc1ccc2c(c1)c1c(n2/C=C2\CCCc3ccccc32)CCN(C)C1` [i-3], the inhibition at 0.1 µM turned out to be 100% in experiment [1], 91% in experiment [2], 72% in experiment [3] and 18% in experiment [4].
